Test system: N-acetylhexosamine-dehydrogenase (N-AHDH)
Test: Influence of inhibitor on enzyme activity
Assay type: biochemical, Pseudomonas sp. No. 53
Details: not given
Description: In the table presented above, enzyme activity was measured in a solution containing 2 mM of metallic ion or inhibitor. There is known no substance particularly contributing to activation and stabilization.
(§1) To 1.8 ml of 0.1 M glycine-sodium hydroxide buffer (pH 9.5) is added 0.1 ml of 60 mM […] solution. After keeping the mixture at 37° C. for 10 minutes, 10 microliters of enzyme solution is added, and subsequently 0.1 ml of 0.3M N-acetylglucosamine solution is mixed to start the reaction. The reaction mixture is immediately transferred into an absorbance measurement cell (1 cm path) kept at 37° C., and absorbance is measured at intervals of one minute at a wavelength of 340 nm over a period of 5 minutes or, if desired, over a longer period of time. A quantity of enzyme capable of forming one micromole of NADH per one minute is taken as "one unit".

| Compound | Residual activity |
| --- | --- |
| Oc1cccc2cccnc12 [8-Hydroxyquinoline] | 110 |

Same assay, conditions: solution containing 2 mM of metallic ion or inhibitor

| Compound | Residual activity |
| --- | --- |
| [Ca+2].[Cl-].[Cl-] [CaCl2] | 95% |
| O=S(=O)([O-])[O-].[Cd+2] [CdSO4] | 92% |
| O=S(=O)([O-])[O-].[Cu+2] [CuSO4] | 94% |
| O=C(O)CN(CCN(CC(=O)O)CC(=O)O)CC(=O)O [EDTA] | 101% |
| [Cl][Hg][Cl] [HgCl2] | 35% |
| NC(=O)CI [Iodoacetamide] | 104% |
| O=S(=O)([O-])[O-].[Mn+2] [MnSO4] | 96% |
| [N-]=[N+]=[N-].[Na+] [NaN3] | 89% |
| O=C(O)c1cc[c]([Hg][Cl])cc1 [PCMB] | 97% |
| CCCCCCCCCCCCOS(=O)(=O)O [SDS] | 62% |
| O=S(=O)([O-])[O-].[Zn+2] [ZnSO4] | 95% |
| c1cnc2c(c1)ccc1cccnc12 [o-Phenanthroline] | 104% |
| c1ccc(-c2ccccn2)nc1 [α, α'-Dipyridyl] | 107% |

Test system: N-acetylhexosamine-dehydrogenase (N-AHDH)
Test: Action and substrate specificity of the enzyme
Assay type: biochemical, Pseudomonas sp. No. 53
Details: in the presence of NAD+
Description: As shown in the following reaction scheme, this enzyme oxidizes N-acetylglucosamine or N-acetylgalactosamine to N-acetylglucosaminolactoneor N-acetylgalactosaminolactone in the presence of NAD^+ and, at the same time, reduces the NAD^+ to NADH. [drawing 1]
as §1

| Compound | Action of the enzyme upon the sugar (substrate specificity) |
| --- | --- |
| CC(=O)N[C@H]1[C@H](O[C@H]2[C@H](O)[C@@H](NC(C)=O)C(O)O[C@@H]2CO)O[C@H](CO)[C@@H](O)[C@@H]1O (stereo partly shown) [N,N'-diacetylchitobiose] | no action at all or hardly exercises an action |
| CC(=O)N[C@H]1C(O)O[C@H](CO)[C@H](O)[C@@H]1O (stereo partly shown) [N-acetylgalactosamine] | oxidizes |
| CC(=O)N[C@H]1C(O)O[C@H](CO)[C@@H](O)[C@@H]1O (stereo partly shown) [N-acetylglucosamine] | oxidizes |
| CC(=O)N[C@@H]1C(O)O[C@H](CO)[C@@H](O)[C@@H]1O (stereo partly shown) [N-acetylmannosamine] | only a slight action |

Same assay, conditions: in the presence of NAD+; listed as acetylchitobiose

| Compound | Action of the enzyme upon the sugar (substrate specificity) |
| --- | --- |
| CC(=O)N[C@H]1[C@H](O[C@H]2[C@H](O)[C@@H](NC(C)=O)C(O)O[C@@H]2CO)O[C@H](CO)[C@@H](O)[C@@H]1O (stereo partly shown) [N,N'-diacetylchitobiose] | does not act |

— patent US5068190A, “N-acetylhexosamine-dehydrogenase, process for producing same, method for the quantitative analysis of N-acetylglucosamine or N-acetylgalactosamine using same and kit for use in the quantitative analysis” (Noda Institute for Scientific Research, priority 1988, dated 1991)
